Results on one molecule are retold here after patent US20080103209A1, “Compounds And Methods For Treating Non-Inflammatory Pain Using Ppar Alpha Agonists” (The Regents of The University of California, priority 2004, published 2008).

Structures are written as SMILES.

Series [1] addresses T1, human PPARα (Homo sapiens, UniProt Q07869).
T1 construct: expressed in transfected cells
T1 sequence (Q07869 239-466 limits assumed): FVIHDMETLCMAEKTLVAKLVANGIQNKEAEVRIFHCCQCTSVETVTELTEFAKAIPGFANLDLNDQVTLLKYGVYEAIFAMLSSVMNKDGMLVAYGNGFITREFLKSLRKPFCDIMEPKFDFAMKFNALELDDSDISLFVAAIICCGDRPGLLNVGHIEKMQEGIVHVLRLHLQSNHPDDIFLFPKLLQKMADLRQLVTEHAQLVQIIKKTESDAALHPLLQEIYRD
The series can be described thus: PPARα transactivation assay (HeLa cells, luciferase reporter). As to conditions: HeLa cells, n=12; read-out: half-maximal effective concentration (EC50), PPARα activation. It is filed as cell-based. Here is the method: (§1) Transactivation assays were performed as previously described [Fu et al., Nature 425:90-93 (2003)].
PPAR-α transactivation. Plasmids were generated which contained the ligand-binding domain of human PPAR-α (nucleotides 499-1,407) fused to the DNA-binding domain of yeast GAL4 under control of the human cytomegalovirus promoter and to a neomycin resistance gene to provide stable selection with 0.2 mg-ml-1 G418 (Calbiochem). We cultured HeLa cells in Dulbecco's-modified Eagles's medium (DMEM) supplemented with fetal bovine serum (10%), transfected them with Fugene 6 ([…], Roche) containing the pFR-luc plasmid ([…], Stratagene) and, 18 h later, replaced the media with DMEM containing hygromycin (0.1 mg ml−1, Calbiochem). […] Cells were maintained in DMEM containing hygromycin and G418. For transactivation assays, we seeded cells in 6-well plates and incubated them for 7 h in DMEM containing hygromycin and G418, plus appropriate concentrations of test compounds. We used a dual-luciferase reporter assay system (Promega) and an MLX Microtiter® plate luminometer (Dynex) to determine luciferase activity in cell lysates.

For series [2], the target named is T2, PPARβ/δ (Homo sapiens, UniProt Q03181).
T2 construct: expressed in transfected cells
T2 sequence (Q03181 1-441): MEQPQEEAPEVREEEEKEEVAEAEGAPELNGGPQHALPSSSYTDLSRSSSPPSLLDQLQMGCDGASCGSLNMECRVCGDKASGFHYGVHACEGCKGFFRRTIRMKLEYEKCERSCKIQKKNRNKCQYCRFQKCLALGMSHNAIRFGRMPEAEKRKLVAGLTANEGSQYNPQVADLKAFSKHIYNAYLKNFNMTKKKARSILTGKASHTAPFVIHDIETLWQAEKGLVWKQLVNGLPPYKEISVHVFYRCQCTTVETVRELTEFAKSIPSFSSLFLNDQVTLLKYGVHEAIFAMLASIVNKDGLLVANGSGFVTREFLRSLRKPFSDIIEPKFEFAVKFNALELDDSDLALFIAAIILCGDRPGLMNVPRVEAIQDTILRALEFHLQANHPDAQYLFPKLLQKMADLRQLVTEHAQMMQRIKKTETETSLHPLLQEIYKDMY
The series can be described thus: PPARβ/δ transactivation assay. The class given is cell-based. As to conditions: concentrations as high as 20 μM. As for the experimental part:
as §1

In series [3] the test system is PKA-IIα regulatory subunit phosphorylation on Ser^96. As to the kind of experiment: Immunoblot of lumbar spinal cord extracts, phosphorylated PKA regulatory subunit. The class given is in vivo, mouse. The note with it: neuropathic mice, PEA 30 mg-kg^−1 s.c. once daily for two weeks. As for the experimental part:
Opiate analgesics have a high liability to produce tolerance, a progressive loss of pharmacological activity caused by repeated drug administrations (Waldhoer et al., Annu Rev Biochem, 73, 953 (2004)). To assess whether tolerance develops to the antihyperalgesic effects of PPARα agonists, PEA (30 mg-kg^−1, s.c.) was administered once a day for 14 consecutive days from the time of surgery, measuring mechanical and thermal hyperalgesia at day 7 and 14.
Immunoblot analysis. Lumbar spinal cord tissue was weighed, homogenized in Tris-HCl (20 mM, pH 7.5), 10 mM NaF, 150 mM NaCl, 1% Nonidet P-40, 1 mM PMSF, 1 mM Na3VO4, leupeptin and trypsin inhibitor (10 μg/ml). After 1 h, the tissue lysates were subjected to centrifugation ay 100,000×g for 15 min at 4° C. Protein concentrations were estimated using a Bio-Rad protein assay and bovine serum albumin as a standard. Equal amounts of protein (20 μg) were dissolved in Laemmli sample buffer, boiled for 5 min, subjected to sodium dodecyl sulphate-polyacrylamide gel electrophoresis (8% polyacrylamide) and transferred onto nitrocellulose membranes at 240 mA for 40 min at room temperature. […] The films were scanned and densitometrically analysed with a model GS-700 imaging densitometer.

A short description of series [4]: Tissue PEA levels after subcutaneous PEA (LC/MS). The class given is in vivo, mouse. As to conditions: daily PEA injections s.c. As for the experimental part: LC/MS analysis. PEA was measured by high-performance liquid chromatography/tandem mass spectrometry. Tissue samples were weighed, cut into 1 mm^2 pieces, and incubated with 1 mL of acetonitrile at 4° C. overnight. Samples of the incubates (100 μl) were transferred to 96-well plates, diluted with 250 μL of acetonitrile containing [H2]-ethanolamine-OEA as an internal standard, and injected into the HPLC. HPLC analyses were carried out on a Waters 2790 Alliance system (Milford, Mass.) using a Phenomenex Synergi Polar-RP column (2 mm×150 mm, 4μ; Torrance, Calif.) and a mobile phase of 0.1% formic acid in water (solvent “A”) and 0.1% formic acid in acetonitrile (solvent “B”). Run conditions were isocratic (25% A and 75% B), at a flow rate of 0.3 mL min^−1, column temperature of 45° C., and a run time of 3 minutes. The HPLC system was interfaced with a Micromass Ultima (Beverly, Mass.) tandem mass spectrometer. The samples were analyzed using an electrospray probe in the positive ionization mode with the cone voltage set at 40 V and capillary at 3.2 kV. The source and desolvation temperature settings were 130° C. and 500° C., respectively. The voltage of the CID chamber was set at −17 eV. Multiple reaction monitoring was used for the detection of PEA as [M+H]^+ (m/z 300>62) and the standard as [M+H]^+ (m/z 330>66).

Turning to `CCCCCCCCCCCCCCCC(=O)NCCO` [PEA, palmitoylethanolamide], the EC50 in series [1] was 3 µM. Moreover, the PPARβ/δ activation result in series [2] is “did not activate”. Moreover, the “phosphorylation of PKA-IIα regulatory subunit at Ser^96” value in series [3] was “reduced”. Also, the “brain PEA levels vs vehicle-treated mice” value in series [4] is given as “significantly higher”.
